Experiments:
[1] = Solubility/clarity and freeze-thaw of 1.0% olopatadine in native guar with HPCD (Table 4-1); format: physicochemical; conditions: 0.17% native guar, approximately 5% or more HPCD, physiologic pH of approximately 7
Description: (§1) Various concentrations of HPCD were used in the formulations. The formulations were filled in glass scintillation vials and in LDPE Drop-Tainers. The formulations were evaluated for clarity using UV light.

[2] = Solubility/clarity and freeze-thaw of 0.5% and 1.0% olopatadine in native guar with HPCD (Table 5-1); format: physicochemical; conditions: physiologic pH of 7; for Olopatadine solubility: 0.17% native guar
Description: as §1
Formulation Compositions Containing 0.5% and 1.0% Olopatadine in 0.17% Native Guar and 1% to 6% Hydroxypropyl-Beta-Cyclodextrin (HPCD).

[3] = tested on: late phase allergy symptoms; assay: Efficacy of olopatadine aqueous ophthalmic solutions in reducing late phase allergy symptoms; format: in vivo
Description: Olopatadine is a known compound that can be obtained by the methods disclosed in U.S. Pat. No. 5,116,863, the entire contents of which are hereby incorporated by reference in the present specification for all purposes. Olopatadine is an antihistamine (as well as anticholinergic) and mast cell stabilizer. Olopatadine is a selective histamine H1 antagonist. When included, the composition of the present invention contains at least 0.1%, more typically at least 0.33% or 0.55%, even more typically at least 0.65% or 0.67%, still more typically at least 0.7%, but typically no greater than 1.5% more typically no greater than 1.0%, still more typically no greater than 0.8%, possibly no greater than 0.75% and even possibly no greater than 0.72% or 0.6% of olopatadine where concentrations of olopatadine typically represent concentrations of olopatadine in free base form if the olopatadine is added to the composition as a salt. […] Advantageously, for the composition of the present invention, lower concentrations (e.g., at least 0.50 w/v %, at least 0.55 w/v %, or at least 0.60 w/v %) may show significant improvements and even possibly statistically significant improvements in reducing late phase allergy symptoms.

Olopatadine concentration solubilized [1]: 1% | Olopatadine solubility ([2]; HPCD at or above approximately 2%): 0.5% | Olopatadine solubility ([2]; HPCD at or above approximately 4%): 1% | concentration of cyclodextrin that can solubilize Olopatadine ([2]; 0.5% Olopatadine together with 0.17% guar): approximately 2% | concentration of cyclodextrin that can solubilize Olopatadine ([2]; 0.6% Olopatadine together with 0.17% guar): ~4%
SMILES: CN(C)CC/C=C1/c2ccccc2COc2ccc(CC(=O)O)cc21 [Olopatadine, (Z)-11-(3-dimethylaminopropylidene)-6,11-dihydro-dibenz-[b,e]oxepin-2-acetic acid]
olopatadine concentration at which efficacy in reducing late phase allergy symptoms begins to show improvement [3]: greater than 0.5 w/v % | olopatadine concentration at which statistically significant improvements in reducing late phase allergy symptoms begin ([3]; about 0.7 w/v % and above): at least 0.7 w/v %

Source: US20140364422A1, “Aqueous Pharmaceutical Composition With Enhanced Stability” (NOVARTIS AG, priority 2012, published 2014)
